Drawing on patent publication US20240300980A1, “HETEROCYCLIC COMPOUNDS AS KRAS INHIBITOR, AND PREPARATION THEREFOR AND USE THEREOF IN TREATMENT” (SHANGHAI KECHOW PHARMA, INC., priority 2021, published 2024), this text covers IC50 for 21 molecules.

Bounds are passed on as bounds.

For the first test, the system named is AGS cells (KRAS^G12D). Kind of test: Detection of cell proliferation in vitro by MTT/MTS method (cell activity experiment). It counts as cell-based. The following applies: AGS cells; MTT/MTS; 3 days of drug treatment; read-out: AGS IC50. The gist of the method:
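KRAS G12D AGS cells seeded at 1000 per well, compound added 24 h later, 0.5% final DMSO. Viability read after 3 days of treatment by MTT (solubilised in DMSO) or MTS, 4 h, absorbance 490 nm. IC50 from dose–response curves versus DMSO control.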
As to `C#Cc1c(F)ccc2cc(O)cc(-c3ccc4c(N5C[C@H]6CC[C@@H](C5)[C@@H]6O)nc(OC[C@@]56CCCN5C[C@H](F)C6)nc4c3F)c12` [Example 118, (1R,5S,8R)-3-(7-(8-ethynyl-7-fluoro-3-hydroxynaphthalen-1-yl)-8-fluoro-2-(((2R,7aS)-2-fluorotetrahydro-1H-pyrrolizin-7a(5H)-yl)methoxy)quinazolin-4-yl)-3-azabicyclo [3.2.1]octan-8-ol], the half-maximal inhibitory concentration (IC50) is above 2500 nM.

The test is the same for the next values; noted with them: Homo sapiens, AGS, 72 h, AGS cells; MTT/MTS; 3 days of drug treatment; read-out: AGS IC50.
As for `O=S1(=O)[C@@H]2CC[C@H]1CN(c1nc(OC[C@@]34CCCN3C[C@H](F)C4)nc3c(F)c(-c4cc(O)cc5ccc(F)c(F)c45)ccc13)C2` [Example 166, (1R,5S)-3-(7-(7,8-difluoro-3-hydroxynaphthalen-1-yl)-8-fluoro-2-(((2R,7aS)-2-fluorotetrahydro-1H-pyrrolizin-7a(5H)-yl)methoxy)quinazolin-4-yl)-8-thia-3-azabicyclo[3.2.1]octane 8,8-dioxide], the IC50 was above 2500 nM.

In the case of `CC1CCc2cc(O)cc(-c3ccc4c(N5C[C@H]6CC[C@@H](C5)N6)nc(OC[C@@]56CCCN5C[C@H](F)C6)nc4c3F)c21` (stereo partly drawn) [Example 286, 7-(4-((1R,5S)-3,8-diazabicyclo[3.2.1]octan-3-yl)-8-fluoro-2-(((2R,7aS)-2-fluorotetrahydro-1H-pyrrolizin-7a(5H)-yl)methoxy)quinazolin-7-yl)-1-methyl-2,3-dihydro-1H-inden-5-ol], the IC50 turned out to be 29 nM.

With `C#Cc1c(F)ccc2cc(O)cc(-c3ccc4c(N5C[C@H]6CC[C@@H](C5)N6)c(C(F)(F)F)c(OC[C@@]56CCCN5C[C@H](F)C6)nc4c3)c12` [Example 183, 4-(4-((1R,5S)-3,8-diazabicyclo[3.2.1]octan-3-yl)-2-(((2R,7aS)-2-fluorotetrahydro-1H-pyrrolizin-7a(5H)-yl)methoxy)-3-(trifluoromethyl)quinolin-7-yl)-5-ethynyl-6-fluoronaphthalen-2-ol], the 50% inhibitory concentration (IC50) was above 2500 nM.

For `CCC1c2c(-c3ncc4c(N5C[C@H]6CC[C@@H](C5)N6)nc(OC[C@@]56CCCN5C[C@H](F)C6)nc4c3F)cc(O)cc2C2CC21` (stereo partly drawn) [Example 355, 5-(4-((1R,5S)-3,8-diazabicyclo[3.2.1]octan-3-yl)-8-fluoro-2-(((2R,7aS)-2-fluorotetrahydro-1H-pyrrolizin-7a(5H)-yl)methoxy)pyrido[4,3-d]pyrimidin-7-yl)-6-ethyl-1,1a,6,6a-tetrahydrocyclopropa[a]inden-3-ol], the 50% inhibitory concentration (IC50) is 20 nM.

Consider `C#Cc1c(F)ccc2cc(O)cc(-c3ccc4c(N5CC6CCC(N6)C5=O)nc(OC[C@@]56CCCN5C[C@H](F)C6)nc4c3F)c12` (stereo partly drawn) [Example 214, 3-(7-(8-ethynyl-7-fluoro-3-hydroxynaphthalen-1-yl)-8-fluoro-2-(((2R,7aS)-2-fluorotetrahydro-1H-pyrrolizin-7a(5H)-yl)methoxy)quinazolin-4-yl)-3,8-diazabicyclo[3.2.1]octan-2-one], for which the IC50 was above 10000 nM.

Regarding `CCc1c(F)ccc2cc(O)cc(-c3ncc4c(N5C[C@H]6CC[C@@H](C5)N6)nc(OCC5(CN6CCCC6)CC5)nc4c3F)c12` [Example 3, 4-(4-((1R,5S)-3,8-diazabicyclo[3.2.1]octan-3-yl)-8-fluoro-2-((1-(pyrrolidin-1-ylmethyl)cyclopropyl)methoxy)pyrido[4,3-d]pyrimidin-7-yl)-5-ethyl-6-fluoronaphthalen-2-ol], the IC50 stood at 4.5 nM.

With `CSC1CCCc2cc(O)cc(-c3ncc4c(N5C[C@H]6CC[C@@H](C5)N6)nc(OC[C@@]56CCCN5C[C@H](F)C6)nc4c3F)c21` (stereo partly drawn) [Example 426, 4-(4-((1R,5S)-3,8-diazabicyclo[3.2.1]octan-3-yl)-8-fluoro-2-(((2R,7aS)-2-fluorotetrahydro-1H-pyrrolizin-7a(5H)-yl)methoxy)pyrido[4,3-d]pyrimidin-7-yl)-5-(methylthio)-5,6,7,8-tetrahydronaphthalen-2-ol], the IC50 amounted to 15 nM.

As for `C#Cc1c(F)ccc2cc(O)cc(-c3ncc4c(N5CC6CCC(C5)C6N)nc(OC[C@@]56CCCN5C[C@H](F)C6)nc4c3F)c12` (stereo partly drawn) [Example 63, 4-(4-((1R,5S,8R)-8-amino-3-azabicyclo [3.2.1]octan-3-yl)-8-fluoro-2-(((2R,7aS)-2-fluorotetrahydro-1H-pyrrolizin-7a(5H)-yl)methoxy)pyrido[4,3-d]pyrimidin-7-yl)-5-ethynyl-6-fluoronaphthalen-2-ol], the IC50 was 1580 nM.

`Oc1cccc2cccc(C#Cc3ccc4c(N5C[C@H]6CC[C@@H](C5)N6)nc(OC[C@@]56CCCN5C[C@H](F)C6)nc4c3F)c12` [Example 364, 8-((4-((1R,5S)-3,8-diazabicyclo[3.2.1]octan-3-yl)-8-fluoro-2-(((2R,7aS)-2-fluorotetrahydro-1H-pyrrolizin-7a(5H)-yl)methoxy)quinazolin-7-yl)ethynyl)naphthalen-1-ol]: the 50% inhibitory concentration (IC50) amounted to 811 nM.

`CCC1CCCc2cc(O)cc(-c3c4c(c5c(N6C[C@H]7CC[C@@H](C6)N7)nc(OC[C@@]67CCCN6C[C@H](F)C7)nc5c3F)CCC4)c21` (stereo partly drawn) [Example 383, 4-(1-((1R,5S)-3,8-diazabicyclo[3.2.1]octan-3-yl)-5-fluoro-3-(((2R,7aS)-2-fluorotetrahydro-1H-pyrrolizin-7a(5H)-yl)methoxy)-8,9-dihydro-7H-cyclopenta[f]quinazolin-6-yl)-5-ethyl-5,6,7,8-tetrahydronaphthalen-2-ol]: the concentration for half-maximal inhibition (IC50) came out at 50 nM.

As to `C#Cc1cccc2cc(O)cc(-c3ccc4c(N5C[C@H]6CC[C@@H](C5)N6)c(C#N)c(OC[C@@]56CCCN5C[C@H](F)C6)nc4c3)c12` [Example 173, 4-((1R,5S)-3,8-diazabicyclo[3.2.1]octan-3-yl)-7-(8-ethynyl-3-hydroxynaphthalen-1-yl)-2-(((2R,7aS)-2-fluorotetrahydro-1H-pyrrolizin-7a(5H)-yl)methoxy)quinoline-3-carbonitrile], the IC50 turned out to be 1450 nM.

Regarding `CCc1cccc2cc(O)cc(-c3ncc4c(N5C[C@H]6CC[C@@H](C5)N6)c(C#N)c(OC[C@@]56CCCN5C[C@H](F)C6)nc4c3F)c12` [Example 190, 4-((1R,5S)-3,8-diazabicyclo[3.2.1]octan-3-yl)-7-(8-ethyl-3-hydroxynaphthalen-1-yl)-8-fluoro-2-(((2R,7aS)-2-fluorotetrahydro-1H-pyrrolizin-7a(5H)-yl)methoxy)-1,6-naphthyridine-3-carbonitrile], the concentration for half-maximal inhibition (IC50) is 150 nM.

Take `CSC1CCc2cc(O)cc(-c3ncc4c(N5C[C@H]6CC[C@@H](C5)N6)nc(OC[C@@]56CCCN5C[C@H](F)C6)nc4c3F)c21` (stereo partly drawn) [Example 354, 7-(4-((1R,5S)-3,8-diazabicyclo[3.2.1]octan-3-yl)-8-fluoro-2-(((2R,7aS)-2-fluorotetrahydro-1H-pyrrolizin-7a(5H)-yl)methoxy)pyrido[4,3-d]pyrimidin-7-yl)-1-(methylthio)-2,3-dihydro-1H-inden-5-ol]: the IC50 was determined as 25 nM.

Turning to `C#Cc1c(F)ccc2cc(O)cc(-c3ncc4c(C56CCN(CC5)CC6)nc(OC[C@@]56CCCN5C[C@H](F)C6)nc4c3F)c12` [Example 71, 5-ethynyl-6-fluoro-4-(8-fluoro-2-(((2R, 7aS)-2-fluorotetrahydro-1H-pyrrolizin-7a(5H)-yl)methoxy)-4-(quinuclidin-4-yl)pyrido[4,3-d]pyrimidin-7-yl) naphthalen-2-ol], the 50% inhibitory concentration (IC50) was above 2500 nM.

Take `C#Cc1cccc2cc(O)cc(-c3ncc4c(N5CCC6(CC5)CO[C@@H](C)[C@H]6N)nc(OC[C@@]56CCCN5C[C@H](F)C6)nc4c3F)c12` [Example 56, 4-(4-((3S,4S)-4-amino-3-methyl-2-oxa-8-azaspiro[4.5]decan-8-yl)-8-fluoro-2-(((2R, 7aS)-2-fluorotetrahydro-1H-pyrrolizin-7a(5H)-yl)methoxy)pyrido[4,3-d]pyrimidin-7-yl)-5-ethynylnaphthalen-2-ol]: the IC50 is above 2500 nM.

Turning to `CCc1nccc2cc(O)cc(-c3ncc4c(N5C[C@H]6CC[C@@H](C5)N6)nc(OC[C@@]56CCCN5C[C@H](F)C6)nc4c3F)c12` [Example 340, 8-(4-((1R,5S)-3,8-diazabicyclo[3.2.1]octan-3-yl)-8-fluoro-2-(((2R,7aS)-2-fluorotetrahydro-1H-pyrrolizin-7a(5H)-yl)methoxy)pyrido[4,3-d]pyrimidin-7-yl)-1-ethylisoquinolin-6-ol], the IC50 is 20 nM.

As for `CCc1cccc2cc(O)cc(-c3ncc4c(C5C[C@H]6CC[C@@H](C5)N6)nc(OC[C@@]56CCCN5C[C@H](F)C6)nc4c3F)c12` (stereo partly drawn) [Example 81, 4-(4-((1R,5S)-8-azabicyclo[3.2.1]octan-3-yl)-8-fluoro-2-(((2R,7aS)-2-fluorotetrahydro-1H-pyrrolizin-7a(5H)-yl)methoxy)pyrido [4,3-d]pyrimidin-7-yl)-5-ethylnaphthalen-2-ol], the concentration for half-maximal inhibition (IC50) was above 2500 nM.

As for `Oc1cc(-c2ncc3c(N4C[C@H]5CC[C@@H](C4)O5)nc(OC[C@@]45CCCN4C[C@H](F)C5)nc3c2F)c2c(F)c(F)ccc2c1` [Example 16, 4-(4-((1R,5S)-8-oxa-3-azabicyclo[3.2.1]octan-3-yl)-8-fluoro-2-(((2R,7aS)-2-fluorotetrahydro-1H-pyrrolizin-7a(5H)-yl)methoxy)pyrido[4,3-d]pyrimidin-7-yl)-5,6-difluoronaphthalen-2-ol], the IC50 was found to be 315 nM.

Consider `C#Cc1c(F)ccc2cc(O)cc(-c3ccc4c(N5CCC(NS(C)(=O)=O)C5)nc(OC[C@@]56CCCN5C[C@H](F)C6)nc4c3F)c12` (stereo partly drawn) [Example 117, N-(1-(7-(8-ethynyl-7-fluoro-3-hydroxynaphthalen-1-yl)-8-fluoro-2-(((2R, 7aS)-2-fluorotetrahydro-1H-pyrrolizin-7a(5H)-yl)methoxy)quinazolin-4-yl)pyrrolidin-3-yl)methanesulfonamide], for which the IC50 was above 2500 nM.

Regarding `N#Cc1c(OC[C@@]23CCCN2C[C@H](F)C3)nc2cc(-c3cc(O)cc4cccc(F)c34)ccc2c1N1C[C@H]2CC[C@@H](C1)N2` [Example 176, 4-((1R,5S)-3,8-diazabicyclo[3.2.1]octan-3-yl)-7-(8-fluoro-3-hydroxynaphthalen-1-yl)-2-(((2R,7aS)-2-fluorotetrahydro-1H-pyrrolizin-7a(5H)-yl)methoxy)quinoline-3-carbonitrile], the half-maximal inhibitory concentration (IC50) worked out at 1340 nM.
